Experimental data: ChEMBL document CHEMBL1201862, “PubChem BioAssay data set” (2004)
Where “and” joins values, the source holds several entries; their conditions need not be identical. Equal entries are not always repeated.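 Compound exposure: 48 hours, 5 concentrations, 96-well plates. GI50 marks 50% less growth.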 Calls of active or inactive are those of the source. Cut-off read from the data, not from the text of the source: active = GI50 up to about 1.1 µM and inactive = higher.

What was measured:
Assay in all cases: DTP human tumour cell line panel, 48 h
U-251 = system: U-251
SNB-19 = system: SNB-19
CAKI-1 = system: CAKI-1
RPMI-8226 = system: RPMI-8226
MOLT-4 = system: MOLT-4
SF-539 = system: SF-539
PC-3 = system: PC-3
MDA-N = system: MDA-N
HL-60 = system: HL-60
SNB-75 = system: SNB-75
SK-MEL-2 = system: SK-MEL-2
A498 = system: A498
UACC-257 = system: UACC-257
NCI-H23 = system: NCI-H23
LOX IMVI = system: LOX IMVI
SF-268 = system: SF-268
HT-29 = system: HT-29
HCC 2998 = system: HCC 2998
SK-MEL-28 = system: SK-MEL-28
OVCAR-5 = system: OVCAR-5
UO-31 = system: UO-31
SN12C = system: SN12C
SK-OV-3 = system: SK-OV-3
SR = system: SR
786-0 = system: 786-0
K562 = system: K562
ACHN = system: ACHN
COLO 205 = system: COLO 205
RXF 393 = system: RXF 393
HCT-116 = system: HCT-116
HCT-15 = system: HCT-15
Hs-578T = system: Hs-578T
CCRF-CEM = system: CCRF-CEM
NCI/ADR-RES = system: NCI/ADR-RES
MCF7 = system: MCF7
SW-620 = system: SW-620
T47D = system: T47D
A549 = system: A549
IGROV-1 = system: IGROV-1
SF-295 = system: SF-295
MDA-MB-435 = system: MDA-MB-435
SK-MEL-5 = system: SK-MEL-5
TK-10 = system: TK-10
UACC-62 = system: UACC-62
EKVX = system: EKVX
KM12 = system: KM12
OVCAR-3 = system: OVCAR-3
Malme-3M = system: Malme-3M
NCI-H522 = system: NCI-H522
M14 = system: M14
NCI-H460 = system: NCI-H460
HOP-62 = system: HOP-62
OVCAR-4 = system: OVCAR-4
OVCAR-8 = system: OVCAR-8
MDA-MB-231 = system: MDA-MB-231
DU-145 = system: DU-145

In the case of `Cc1cc(NCCCCCCNc2cc(C)nc3ccc(N)cc23)c2cc(N)ccc2n1`, the GI50 (U-251) is reported as 42.3 µM (inactive) and the GI50 (SNB-19) is reported as 37 µM (inactive).
`Cc1cc(-c2nc3ccc(O)cc3s2)ccc1N` was tested, and the GI50 (CAKI-1) was 34.8 µM (inactive).
`CCOC(=O)C(Cl)(NC(=O)NC(Cl)(C(=O)OCC)C(F)(F)F)C(F)(F)F` (stereo not drawn) was tested, and the GI50 (U-251) was > 100 µM (inactive), the GI50 (RPMI-8226) was > 100 µM (inactive) and the GI50 (MOLT-4) was > 100 µM (inactive). For the same compound, the GI50 (SF-539) was > 100 µM (inactive), the GI50 (PC-3) was > 100 µM (inactive) and the GI50 (MDA-N) was > 100 µM (inactive). The GI50 (HL-60) was > 100 µM (inactive), the GI50 (SNB-75) was > 100 µM (inactive) and the GI50 (SK-MEL-2) was > 100 µM (inactive). For the same compound, the GI50 (SNB-19) was > 100 µM (inactive), the GI50 (A498) was > 100 µM (inactive) and the GI50 (UACC-257) was > 100 µM (inactive). The GI50 (NCI-H23) was > 100 µM (inactive), the GI50 (LOX IMVI) was > 100 µM (inactive) and the GI50 (SF-268) was > 100 µM (inactive). For the same compound, the GI50 (HT-29) was > 100 µM (inactive), the GI50 (HCC 2998) was > 100 µM (inactive) and the GI50 (SK-MEL-28) was > 100 µM (inactive). For the same compound, the GI50 (OVCAR-5) was > 100 µM (inactive), the GI50 (UO-31) was > 100 µM (inactive) and the GI50 (SN12C) was > 100 µM (inactive). The GI50 (SK-OV-3) was > 100 µM (inactive), the GI50 (SR) was > 100 µM (inactive) and the GI50 (786-0) was > 100 µM (inactive). For the same compound, the GI50 (K562) was > 100 µM (inactive), the GI50 (ACHN) was > 100 µM (inactive) and the GI50 (COLO 205) was > 100 µM (inactive). The GI50 (RXF 393) was > 100 µM (inactive), the GI50 (HCT-116) was > 100 µM (inactive) and the GI50 (HCT-15) was over 100 µM. The GI50 (Hs-578T) was > 100 µM (inactive), the GI50 (CCRF-CEM) was > 100 µM (inactive) and the GI50 (NCI/ADR-RES) was > 100 µM (inactive).
For `CC1(C)C2CC(=O)C1(C)C(OCc1ccccc1)C2Br` (stereo not drawn), the GI50 (MCF7) was 36 µM (inactive) and 62.8 µM (inactive), the GI50 (MOLT-4) was 17.7 µM (inactive) and 17.3 µM (inactive) and the GI50 (PC-3) was 18 µM (inactive) and 28.6 µM (inactive). For the same compound, the GI50 (HL-60) was 22.5 µM (inactive) and 23.2 µM (inactive), the GI50 (SW-620) was 19.3 µM (inactive) and 32.7 µM (inactive) and the GI50 (T47D) was 46.2 µM (inactive) and 28.2 µM (inactive). For the same compound, the GI50 (NCI-H23) was 40.7 µM (inactive) and 27.9 µM (inactive), the GI50 (A549) was 37.8 µM (inactive) and 59.3 µM (inactive) and the GI50 (IGROV-1) was 74.8 µM (inactive) and 43.8 µM (inactive). The GI50 (SF-268) was 56.6 µM (inactive), the GI50 (HT-29) was 15.5 µM (inactive) and 22.6 µM (inactive) and the GI50 (SF-295) was 25.2 µM (inactive) and 50.4 µM (inactive). For the same compound, the GI50 (MDA-MB-435) was 29.9 µM (inactive) and 25.6 µM (inactive), the GI50 (SK-MEL-5) was 14.6 µM (inactive) and 20.7 µM (inactive) and the GI50 (SR) was 21.4 µM (inactive) and 25.1 µM (inactive). For the same compound, the GI50 (K562) was 27.1 µM (inactive) and 23.2 µM (inactive), the GI50 (TK-10) was 53.6 µM (inactive) and the GI50 (UACC-62) was 34.9 µM (inactive) and 58.3 µM (inactive). For the same compound, the GI50 (HCT-116) was 19.3 µM (inactive) and 38.2 µM (inactive), the GI50 (HCT-15) was 17.3 µM and 34 µM and the GI50 (EKVX) was 50 µM (inactive) and 57.9 µM (inactive). The GI50 (CCRF-CEM) was 15.8 µM (inactive) and 20.5 µM (inactive) and the GI50 (NCI/ADR-RES) was 20.7 µM (inactive) and 36.7 µM (inactive).
With `CCOC(=O)[C@]12C(=C(c3ccccc3)O[C@H]3C=CCC[C@H]31)C(=O)C(=O)N2c1ccccc1` the GI50 (MCF7) was > 100 µM (inactive), the GI50 (U-251) was 13.4 µM (inactive) and the GI50 (RPMI-8226) was 19.8 µM (inactive). The GI50 (MOLT-4) was 21.4 µM (inactive), the GI50 (SF-539) was > 100 µM (inactive) and the GI50 (PC-3) was 58.2 µM (inactive). The GI50 (KM12) was 37.7 µM (inactive), the GI50 (SK-MEL-2) was > 100 µM (inactive) and the GI50 (SNB-19) was > 100 µM (inactive). For the same compound, the GI50 (A498) was > 100 µM (inactive), the GI50 (T47D) was > 100 µM (inactive) and the GI50 (NCI-H23) was > 100 µM (inactive). For the same compound, the GI50 (CAKI-1) was > 100 µM (inactive), the GI50 (A549) was > 100 µM (inactive) and the GI50 (SF-268) was > 100 µM (inactive). The GI50 (HT-29) was 60 µM (inactive), the GI50 (HCC 2998) was > 100 µM (inactive) and the GI50 (OVCAR-5) was > 100 µM (inactive). The GI50 (OVCAR-3) was > 100 µM (inactive), the GI50 (UO-31) was > 100 µM (inactive) and the GI50 (Malme-3M) was 65.5 µM (inactive). For the same compound, the GI50 (SF-295) was 98.4 µM (inactive), the GI50 (NCI-H522) was 24 µM (inactive) and the GI50 (M14) was > 100 µM (inactive). For the same compound, the GI50 (SN12C) was > 100 µM (inactive), the GI50 (SK-OV-3) was > 100 µM (inactive) and the GI50 (SK-MEL-5) was 93.8 µM (inactive). For the same compound, the GI50 (NCI-H460) was > 100 µM (inactive), the GI50 (SR) was 17.7 µM (inactive) and the GI50 (786-0) was > 100 µM (inactive). For the same compound, the GI50 (K562) was 17.5 µM (inactive), the GI50 (HOP-62) was > 100 µM (inactive) and the GI50 (TK-10) was > 100 µM (inactive). For the same compound, the GI50 (ACHN) was > 100 µM (inactive), the GI50 (COLO 205) was > 100 µM (inactive) and the GI50 (OVCAR-4) was > 100 µM (inactive). The GI50 (OVCAR-8) was 65.2 µM (inactive), the GI50 (RXF 393) was > 100 µM (inactive) and the GI50 (UACC-62) was > 100 µM (inactive). For the same compound, the GI50 (HCT-116) was > 100 µM (inactive), the GI50 (HCT-15) was over 100 µM and the GI50 (MDA-MB-231) was > 100 µM (inactive). For the same compound, the GI50 (DU-145) was > 100 µM (inactive) and the GI50 (NCI/ADR-RES) was 17.1 µM (inactive).
